# Measured values published in PubChem BioAssay (NCI).
# Several values for one entry are separate records, joined by “and”; a condition that tells them apart may be missing. Equal values may be shown once.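 Interpolation was linear, between the two tested concentrations surrounding the appropriate level; five concentrations were tested over 48 hours in 96-well plates. GI50 is the concentration that inhibits growth by half. TGI: total growth inhibition.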
# How the values were obtained:
# Assay in all cases: NCI tumour cell line growth inhibition, 48 h
# LXFL 529 NSCLC = test system: LXFL 529 NSCLC
# SNB-78 CNS = test system: SNB-78 CNS
# IGROV1 ovarian = test system: IGROV1 ovarian
# MALME-3M melanoma = test system: MALME-3M melanoma
# OVCAR-3 ovarian = test system: OVCAR-3 ovarian
# A549 NSCLC = test system: A549 NSCLC
# HCT-116 colon = test system: HCT-116 colon
# SR leukemia = test system: SR leukemia
# DU-145 prostate = test system: DU-145 prostate
# HS 578T breast = test system: HS 578T breast
Compound,TGI (LXFL 529 NSCLC),TGI (SNB-78 CNS),TGI (IGROV1 ovarian),TGI (MALME-3M melanoma),TGI (OVCAR-3 ovarian),TGI (A549 NSCLC),TGI (HCT-116 colon),TGI (SR leukemia),GI50 (LXFL 529 NSCLC),GI50 (HCT-116 colon),GI50 (SNB-78 CNS),GI50 (IGROV1 ovarian),GI50 (OVCAR-3 ovarian),GI50 (A549 NSCLC),GI50 (DU-145 prostate),TGI (DU-145 prostate),GI50 (MALME-3M melanoma),GI50 (HS 578T breast),TGI (HS 578T breast),GI50 (SR leukemia)
CC(=O)Nc1c(Nc2ccccc2)[nH]c(C)nc1=S,> 100 µM,> 100 µM,> 100 µM,> 100 µM,> 100 µM,> 100 µM,,,,,,,,,,,,,,
COCN1COCN=C1NC#N,> 100 µM,> 100 µM,> 100 µM,> 100 µM,> 100 µM,> 100 µM,> 100 µM,> 100 µM,,,,,,,,,,,,
C[N+](C)(C)CC(=O)N/N=C(/C(=O)Nc1ccc(Br)cc1)C1C(=O)NC(=O)NC1=O,> 100 µM,> 100 µM,> 100 µM,> 100 µM,> 100 µM,> 100 µM,> 100 µM,> 100 µM,,,,,,,,,,,,
COC(=O)N/N=C(\C)c1c(O)cc(C)oc1=O,45.5 µM,> 100 µM,> 100 µM,> 100 µM,,> 100 µM,> 100 µM,> 100 µM,,,,,,,,,,,,
CC1=C(/C=C/C(C)=C/C2CC(N(C)C)=CC(=O)O2)C(C)(C)CCC1 (configuration not stated),24 µM,41.9 µM,29 µM,28.6 µM,23.7 µM,22.3 µM,43 µM,28.7 µM,,,,,,,,,,,,
CC(=O)c1c2c(cc3c1CC1(C3)Cc3cc4c(c(C(C)=O)c3C1)CCC4)CCC2,> 100 µM,> 100 µM,> 100 µM,> 100 µM,> 100 µM,> 100 µM,> 100 µM,> 100 µM,,,,,,,,,,,,
CN(C)CCNC(=O)c1cccc2cc3c(Cl)cccc3nc12,,8.26 µM,6.96 µM,2.1 µM,4.9 µM,9.35 µM,2.97 µM,14.8 µM,,,,,,,,,,,,
CC(=O)[O-].Cn1ccnc1CNCc1nccn1C.[Cu+2].[O-][Cl+3]([O-])([O-])[O-],> 100 µM,> 100 µM,> 100 µM,,> 100 µM,> 100 µM,> 100 µM,,> 100 µM,> 100 µM,> 100 µM,> 100 µM,> 100 µM,> 100 µM,,,,,,
O=C(O)[C@H](NS(=O)(=O)c1ccc(F)cc1)c1ccccc1,> 100 µM,> 100 µM,> 100 µM,> 100 µM,> 100 µM,> 100 µM,> 100 µM,,,,,,,,,,,,,
CNC(=O)c1c(NC(=O)c2ccc(C(C)(C)C)cc2)sc2c1CCC(=O)C2,,,1.64 µM,1.59 µM,1.6 µM,1.6 µM,1.4 µM,,,0.0971 µM,,0.373 µM,0.444 µM,0.3 µM,1.44 µM,3.68 µM,0.345 µM,0.38 µM,3.07 µM,0.107 µM
CCOC(=O)C(=O)CC1=Nc2ccccc2SC(c2cccc(C)c2)C1 (configuration not stated),31.9 µM,32.4 µM,35.7 µM,31 µM,34 µM,50.8 µM,27.8 µM,60.5 µM,,,,,,,,,,,,
CCOP(=O)(OCC)C1CCCOC1=O (configuration not stated),> 100 µM,> 100 µM,> 100 µM,> 100 µM,> 100 µM,> 100 µM,> 100 µM,,,,,,,,,,,,,
O=[N+]([O-])C=C(c1ccc(Cl)cc1)c1ccc(Cl)cc1,28.5 µM,44 µM,48.1 µM,,,46.7 µM,31.5 µM,54 µM,,,,,,,,,,,,
C[CH2][Ge]([CH2]C)([CH2]C)[O]C(=O)C(OC(C)=O)c1ccccc1 (configuration not stated),> 100 µM,> 100 µM,> 100 µM,> 100 µM,> 100 µM,> 100 µM,> 100 µM,,> 100 µM,> 100 µM,> 100 µM,> 100 µM,> 100 µM,> 100 µM,,,> 100 µM,,,
N#C/C(=C/c1ccc2c(c1)OCO2)C(=O)c1ccccc1,> 100 µM,> 100 µM,> 100 µM,> 100 µM,> 100 µM,> 100 µM,> 100 µM,,,,,,,,,,,,,
CNC(=O)c1cc(Oc2ccc(NC(=O)Nc3ccc(Cl)c(C(F)(F)F)c3)c(F)c2)ccn1,,,11.2 µM and > 10 µM,5.87 µM and > 10 µM,11.6 µM and > 10 µM,> 24.1 µM,10.8 µM and 8.8 µM,4.38 µM and > 10 µM,,0.944 µM and 0.792 µM,,2.75 µM and 1.85 µM,3.05 µM and 3.03 µM,2.39 µM and 2.64 µM,3.46 µM and 3.96 µM,> 100 µM,0.76 µM and 1.95 µM,1.59 µM and 1.61 µM,16.9 µM and > 10 µM,1.9 µM and 2.63 µM
COCc1c(-c2cc3cc(C)cc(OC)c3s2)c2c(N)ncnn2c1CN1CCNC(=O)C1,,,> 100 µM,17.3 µM,> 100 µM,29.9 µM,44.4 µM,40.5 µM,,5.08 µM,,3.39 µM,8.08 µM,3.2 µM,4.99 µM,> 100 µM,2.83 µM,1.84 µM,13.7 µM,3.81 µM
COc1ccc2c(c1)nc(C(=O)c1ccco1)c(C(F)(F)F)[n+]2[O-],,,> 100 µM,> 100 µM,> 100 µM,> 100 µM,> 100 µM,> 100 µM,,> 100 µM,,> 100 µM,> 100 µM,> 100 µM,> 100 µM,> 100 µM,> 100 µM,> 100 µM,> 100 µM,> 100 µM
CCN(Cc1ccccc1)C1CCN(Cc2cc(Br)ccc2O)CC1,,,> 100 µM,53 µM,> 100 µM,> 100 µM,> 100 µM,> 100 µM,,23.2 µM,,> 100 µM,80.6 µM,69.6 µM,> 100 µM,> 100 µM,24 µM,57.2 µM,> 100 µM,27.8 µM
COc1ccc2c3c([nH]c2c1[N+](=O)[O-])C(C)N(Cc1ccccc1)CC3 (configuration not stated),> 100 µM,> 100 µM,30.9 µM,,49 µM,> 100 µM,24 µM,45.2 µM,,,,,,,,,,,,
c1ccc(C2OC3(CCC[C@H]4C[C@H]43)O[C@H]2c2ccccc2)cc1 (some centres not stated),,> 100 µM,> 100 µM,88 µM,> 100 µM,> 100 µM,> 100 µM,54.2 µM,,,,,,,,,,,,
O=C(Nc1ccccc1)Nc1ccc2cc3ccc(NC(=O)Nc4ccccc4)cc3nc2c1,,,4.3 µM,3.06 µM,2.45 µM,> 100 µM,0.615 µM,0.734 µM,,0.232 µM,,1.66 µM,1.1 µM,11.2 µM,2.41 µM,7.49 µM,1.54 µM,1.53 µM,3.47 µM,0.287 µM
